Values after ≈ are worked out from the molar mass of the structure shown. Like-named read-outs stand apart in the source and are kept apart here.
Key:
[1] = tested on: Staphylococcus aureus bacteria (ATCC 9604 SV); assay: Minimal inhibitory concentration (MIC), broth microdilution; assay type: cell-based; conditions: 24 h at 37° C.
Procedure, shortened: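 MIC: broth microdilution per NCCLS in Mueller-Hinton broth; overnight culture adjusted to 0.05 McFarland and diluted twenty-fold into compound-containing broth. IC50: inoculum at 0.1 McFarland diluted two-fold into TB broth with compound, 3–5 h at 37° C. Turbidity at 550 nm; IC50 is the concentration giving 50% growth inhibition.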

[2] = tested on: Staphylococcus aureus bacteria (ATCC 9604 SV); assay: IC50 determination, growth inhibition by turbidity at 550 nm; assay type: cell-based; conditions: Staphylococcus aureus ATCC 9604 SV, turbidity at 550 nm after 3-5 h at 37° C.
Protocol: Minimal inhibitory concentrations (MICs) for Staphylococcus aureus bacteria (ATCC 9604 SV) were determined by broth microdilution methodology following National Committee for Clinical Laboratory Standards. In the MIC determinations, the compounds were incorporated into Mueller-Hinton broth (Becton Dickinson Microbiology systems, Cockeyville, Md.) at a series of concentrations. After the test organism was grown overnight in TB broth, the broths were adjusted to the turbidity equivalent to 0.05 McFarland standard. The suspensions were diluted twenty-fold into the broth containing the compounds. […] In the IC50 determination, the method was modified to allow the rapid growth of the organisms. The inoculum suspensions were adjusted to 0.1 McFarland standard and then diluted two-fold into the wells containing TB broth and the compounds. After three to five hours incubation at 37° C., the turbidity was measured at 550 nm and inhibitory activity was defined as the concentration of antimicrobial agent that inhibits 50% growth of the organism in the microdilution wells.

[3] = tested on: methicillin-resistant Staphylococcus aureus (ATCC 33591); assay: In vivo mouse intraperitoneal infection, mortality and % survivors over 7 days; conditions: MRSA ATCC 33591 i.p., ICR mice; for In Vivo, single dose (% of mice rescued): single dose 1 h post inoculation; for In Vivo, double dose (% of mice rescued): 1 and 5 h post inoculation
Procedure, shortened: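 Survival and mortality were scored for 7 days after i.p. challenge of 20 g male ICR mice (n=10) with an LD90-100 inoculum (2-3×10^7 CFU/mouse) of MRSA ATCC 33591 in 5% mucin. Treatment was subcutaneous in 1% cremophore EL/saline, either once at 1 h or twice at 1 h and 5 h.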

[4] = ATCC9604, Staphylococcus aureus ATCC 9604 SV, read-out: MIC
[5] = Staphylococcus aureus ATCC 9604 SV

| SMILES | MIC [1, 4] [µg/mL] | IC50 ([2]; ATCC9604) [nM] | In Vivo, single dose (% of mice rescued) ([3]; 2 mg/kg s.c.) [% @ 2 mg/kg] | In Vivo, single dose (% of mice rescued) ([3]; 20 mg/kg s.c.) [% @ 20 mg/kg] | MIC [1, 5] [µg/mL] | IC50 [2] [nM] | In Vivo, double dose (% of mice rescued) ([3]; 2 × 2 mg/kg s.c.) [% @ 2 × 2 mg/kg] | In Vivo, double dose (% of mice rescued) ([3]; 2 × 20 mg/kg s.c.) [% @ 2 × 20 mg/kg] |
| --- | --- | --- | --- | --- | --- | --- | --- | --- |
| O=C(Nc1cc(C(F)(F)F)cc(C(F)(F)F)c1)Nc1cc(-c2ccccc2)nn1-c1ccc(C(F)(F)F)cc1 [Compound 76, 1-(3,5-Bis-trifluoromethyl-phenyl)-3-[5-phenyl-2-(4-trifluoromethyl-phenyl)-2H-pyrazol-3-yl]-urea] | < 0.838 | 54 | 0 | 0 | – | – | – | – |
| O=C(Nc1cc(Cl)cc(Cl)c1)Nc1cc(-c2cccnc2)nn1-c1ccc(Br)cc1 [Compound 116] | – | – | 0 | 0 | 3.02 (≈ 6 µM) | 391 | – | – |
| O=C(Nc1cc(C(F)(F)F)cc(C(F)(F)F)c1)Nc1cc(-c2cccs2)nn1-c1ccc(C(F)(F)F)cc1 [Compound 83] | – | – | 0 | 25 | 0.847 (≈ 1.5 µM) | 71 | – | – |
| CC(C)(C)c1cc(NC(=O)Nc2cc(C(F)(F)F)cc(C(F)(F)F)c2)n(-c2ccc(C(F)(F)F)cc2)n1 [Compound 72] | – | – | 0 | 0 | 0.808 (≈ 1.5 µM) | 58 | – | – |
| O=C(Nc1cc(C(F)(F)F)cc(C(F)(F)F)c1)Nc1ccnn1-c1ccc(Br)cc1 [Compound 92, 1-(3,5-Bis-trifluoromethyl-phenyl)-3-[2-(4-bromo-phenyl)-2H-pyrazol-3-yl]-urea] | < 0.74 | 209 | 0 | 0 | – | – | – | – |
| O=C(Nc1cc(Cl)cc(Cl)c1)Nc1cc(-c2ccco2)nn1-c1ccc(Br)cc1 [Compound 112] | – | – | 0 | 0 | 6.15 (≈ 12.5 µM) | 232 | – | – |
| O=C(Nc1cc(Cl)cc(Cl)c1)Nc1cc(-c2ccccc2)nn1-c1ccc(C(F)(F)F)cc1 [Compound 77] | – | – | 0 | 12.5 | 12.3 (≈ 25 µM) | 81 | – | – |
| O=C(Nc1cc(Cl)cc(Cl)c1)Nc1cc(-c2ccccc2)nn1CC(F)(F)F [Compound 120] | – | – | 0 | 0 | >21.5 | 291 | – | – |
| O=C(Nc1cc(C(F)(F)F)cc(C(F)(F)F)c1)Nc1cc(CN(CCO)CCO)nn1-c1ccc(Br)cc1 [Compound 104] | – | – | – | – | 15.3 (≈ 25.1 µM) | 6800 | 17 | 17 |
| O=C(Nc1cc(C(F)(F)F)cc(C(F)(F)F)c1)Nc1cc(-c2ccsc2)nn1-c1ccc(Br)cc1 [Compound 111] | – | – | 0 | 0 | <0.863 | 126 | – | – |
| O=C1CC(c2ccccc2)=NN1c1cc(Cl)cc(Cl)c1 [Compound 1, 2-(3,5-Dichloro-phenyl)-5-phenyl-2,4-dihydro-pyrazol-3-one] | 0.122 (≈ 0.4 µM) | 540 | – | – | – | – | 0 | 25 |
| O=C(Nc1cc(C(F)(F)F)cc(C(F)(F)F)c1)Nc1cc(-c2cccnc2)nn1-c1ccc(Br)cc1 [Compound 117, 1-(3,5-Bis-trifluoromethyl-phenyl)-3-[2-(4-bromo-phenyl)-5-pyridin-3-yl-2H-pyrazol-3-yl]-urea] | 3.42 (≈ 6 µM) | 238 | 25 | 0 | – | – | – | – |
| O=C(Nc1cc(Cl)cc(Cl)c1)Nc1cc(-c2cccs2)nn1-c1ccc(Br)cc1 [Compound 108] | – | – | 0 | 0 | >25.4 | 194 | – | – |
| COc1ccc(C=C2C(=O)N(c3cc(Cl)cc(Cl)c3)N=C2c2ccccc2)cc1 [Compound 3, 2-(3,5-Dichloro-phenyl)-4-(4-methoxy-benzylidene)-5-phenyl-2,4-dihydro-pyrazol-3-one] | 1.3 (≈ 3.07 µM) | 985 | – | – | – | – | 25 | 25 |
| CC(C)(C)c1cc(NC(=O)Nc2cc(Cl)cc(Cl)c2)n(-c2ccc(Br)cc2)n1 [Compound 100] | – | – | 0 | 0 | <0.723 | 132 | – | – |
| Cc1cc(-c2csc(NC(=O)Nc3cc(C(F)(F)F)cc(C(F)(F)F)c3)n2)ccc1F [Compound 152] | – | – | 0 | 0 | 1.39 (≈ 3 µM) | 171 | – | – |
| O=C(Nc1ccc(F)c(C(F)(F)F)c1)Nc1nc(-c2ccc(F)c(F)c2)cs1 [Compound 168] | – | – | 0 | 0 | <0.626 | 180 | – | – |
| O=C(Nc1cc(C(F)(F)F)cc(C(F)(F)F)c1)Nc1cc(-c2cccnc2)nn1-c1ccc(C(F)(F)F)cc1 [Compound 86] | – | – | 0 | 0 | 1.68 (≈ 3 µM) | 205 | – | – |
| O=C(NCc1cccc(Cl)c1)Nc1nc(-c2ccc(Br)cc2)cs1 [Compound 175, 1-[4-(4-Bromo-phenyl)-thiazol-2-yl]-3-(3-chloro-benzyl)-urea] | 5.28 (≈ 12.5 µM) | 1390 | – | – | – | – | 0 | 25 |
| O=C1CC(c2ccccc2)=NN1c1ccc(Cl)c(Cl)c1 [Compound 2] | – | – | – | – | 1.91 (≈ 6.26 µM) | 449 | 0 | 0 |
| O=C(Nc1cc(Cl)cc(Cl)c1)Nc1cc(-c2ccsc2)nn1-c1ccc(Br)cc1 [Compound 110] | – | – | 0 | 0 | 25.4 (≈ 50 µM) | 164 | – | – |
| CC(C)(C)c1cc(NC(=O)Nc2cc(C(F)(F)F)cc(C(F)(F)F)c2)n(-c2ccc(Br)cc2)n1 [Compound 101] | – | – | 0 | 0 | <0.824 | 143 | – | – |
| COCCN(CCOC)Cc1cc(NC(=O)Nc2cc(Cl)cc(Cl)c2)n(-c2ccc(Br)cc2)n1 [Compound 102] | – | – | 0 | 25 | 28.6 (≈ 50.1 µM) | 3520 | – | – |
| O=C(Nc1cc(C(F)(F)F)cc(C(F)(F)F)c1)Nc1nc(-c2cccs2)cs1 [Compound 155] | – | – | – | – | 1.31 (≈ 3 µM) | 259 | – | – |

Source: patent publication US6410533B1, “Antibacterial compounds” (Genzyme Corporation, priority 2000, dated 2002)
